# Assay results published in ChEMBL document CHEMBL3885881, “DrugMatrix”.
# Organism: Rattus norvegicus
# Test: DrugMatrix - Regimen: Daily Repeat
# Format: toxicity, organism-based, Sprague-Dawley
# Set-up: regimen Daily Repeat, gender Male, age 6-8 weeks
# Conditions: in vivo, po, route oral GAVAGE, vehicle 100 % WATER
# [1] = 70 mg/kg, 72 h, tissue Blood, dose level Low, time 3 day
# [2] = 70 mg/kg, 72 h, tissue Plasma, dose level Low, time 3 day
# [3] = 70 mg/kg, 120 h, tissue Blood, dose level Low, time 5 day
# [4] = 70 mg/kg, 120 h, tissue Plasma, dose level Low, time 5 day
# [5] = 700 mg/kg, 72 h, tissue Blood, dose level High, time 3 day
# [6] = 700 mg/kg, 72 h, tissue Plasma, dose level High, time 3 day
# [7] = 700 mg/kg, 120 h, tissue Blood, dose level High, time 5 day
# [8] = 700 mg/kg, 120 h, tissue Plasma, dose level High, time 5 day
sequence,measurement,setting,value
MANGANESE CHLORIDE ANHYDROUS,ABSOLUTE BASOPHIL,[1],0 CELLS/uL
same,ABSOLUTE EOSINOPHIL,[1],0 CELLS/uL
same,ABSOLUTE LYMPHOCYTE,[1],8843.67 CELLS/uL
same,ABSOLUTE MONOCYTE,[1],103.33 CELLS/uL
same,ABSOLUTE SEGMENTED NEUTROPHIL,[1],819.67 CELLS/uL
same,BASOPHIL,[1],0%
same,EOSINOPHIL,[1],0%
same,ERYTHROCYTE COUNT,[1],5.19 x10E6/uL
same,HEMATOCRIT,[1],32.17%
same,HEMOGLOBIN,[1],12.2 G/DL
same,LEUKOCYTE COUNT,[1],9.77 x10E3/uL
same,LYMPHOCYTE,[1],90%
same,MEAN CORPUSCULAR HEMOGLOBIN,[1],23.5 pg
same,MEAN CORPUSCULAR HEMOGLOBIN CONCENTRATION,[1],37.93 G/DL
same,MEAN CORPUSCULAR VOLUME,[1],61.97 fL
same,MONOCYTE,[1],0.67%
same,NUCLEATED RED BLOOD CELLS,[1],0 /100WBC
same,PLATELET COUNT,[1],1240.67 x10E3/uL
same,ALANINE AMINOTRANSFERASE,[2],53.33 u/L
same,ALKALINE PHOSPHATASE,[2],482 u/L
same,ASPARTATE AMINOTRANSFERASE,[2],91.67 u/L
same,BLOOD UREA NITROGEN,[2],13.33 mg/dL
same,CARBON DIOXIDE,[2],35.33 mmol/L
same,CHLORIDE,[2],99 MEQ/L
same,CHOLESTEROL,[2],84 mg/dL
same,CREATINE PHOSPHOKINASE,[2],442.33 u/L
same,CREATININE,[2],0.22 mg/dL
same,GLUCOSE,[2],139.33 mg/dL
same,LACTATE DEHYDROGENASE,[2],131 u/L
same,PHOSPHORUS,[2],12.07 mg/dL
same,POTASSIUM,[2],6.21 MEQ/L
same,TOTAL BILIRUBIN,[2],0.17 mg/dL
same,TOTAL PROTEIN,[2],6.27 G/DL
same,URIC ACID,[2],0.57 mg/dL
same,ABSOLUTE BASOPHIL,[3],0 CELLS/uL
same,ABSOLUTE EOSINOPHIL,[3],184.33 CELLS/uL
same,ABSOLUTE MONOCYTE,[3],189.67 CELLS/uL
same,ABSOLUTE SEGMENTED NEUTROPHIL,[3],2003 CELLS/uL
same,BASOPHIL,[3],0%
same,EOSINOPHIL,[3],1%
same,ERYTHROCYTE COUNT,[3],4.88 x10E6/uL
same,HEMATOCRIT,[3],30.07%
same,HEMOGLOBIN,[3],11.73 G/DL
same,LEUKOCYTE COUNT,[3],15.07 x10E3/uL
same,LYMPHOCYTE,[3],84%
same,MEAN CORPUSCULAR HEMOGLOBIN,[3],24.27 pg
same,MEAN CORPUSCULAR HEMOGLOBIN CONCENTRATION,[3],39.03 G/DL
same,NEUTROPHIL,[3],13.67%
same,NUCLEATED RED BLOOD CELLS,[3],0.33 /100WBC
same,PLATELET COUNT,[3],1245 x10E3/uL
same,ALANINE AMINOTRANSFERASE,[4],35.67 u/L
same,ALBUMIN,[4],3.9 G/DL
same,ALKALINE PHOSPHATASE,[4],338 u/L
same,ASPARTATE AMINOTRANSFERASE,[4],64.33 u/L
same,BLOOD UREA NITROGEN,[4],13.67 mg/dL
same,CARBON DIOXIDE,[4],31.67 mmol/L
same,CHOLESTEROL,[4],69.33 mg/dL
same,CREATINE PHOSPHOKINASE,[4],218 u/L
same,CREATININE,[4],0.22 mg/dL
same,GLUCOSE,[4],158.33 mg/dL
same,LACTATE DEHYDROGENASE,[4],105.67 u/L
same,PHOSPHORUS,[4],13.3 mg/dL
same,POTASSIUM,[4],6.22 MEQ/L
same,TOTAL BILIRUBIN,[4],0.17 mg/dL
same,TOTAL PROTEIN,[4],5.83 G/DL
same,ABSOLUTE BASOPHIL,[5],0 CELLS/uL
same,ABSOLUTE EOSINOPHIL,[5],33.67 CELLS/uL
same,ABSOLUTE LYMPHOCYTE,[5],10434.33 CELLS/uL
same,ABSOLUTE MONOCYTE,[5],178.67 CELLS/uL
same,ABSOLUTE SEGMENTED NEUTROPHIL,[5],1653.33 CELLS/uL
same,BASOPHIL,[5],0%
same,EOSINOPHIL,[5],0.33%
same,ERYTHROCYTE COUNT,[5],4.97 x10E6/uL
same,HEMATOCRIT,[5],30.43%
same,HEMOGLOBIN,[5],11.8 G/DL
same,LEUKOCYTE COUNT,[5],12.3 x10E3/uL
same,LYMPHOCYTE,[5],85.67%
same,MEAN CORPUSCULAR HEMOGLOBIN,[5],23.77 pg
same,MEAN CORPUSCULAR HEMOGLOBIN CONCENTRATION,[5],38.77 G/DL
same,NEUTROPHIL,[5],12.67%
same,NUCLEATED RED BLOOD CELLS,[5],0 /100WBC
same,PLATELET COUNT,[5],1357.33 x10E3/uL
same,ALANINE AMINOTRANSFERASE,[6],45 u/L
same,ALBUMIN,[6],3.77 G/DL
same,ALKALINE PHOSPHATASE,[6],329.67 u/L
same,ASPARTATE AMINOTRANSFERASE,[6],86.33 u/L
same,BLOOD UREA NITROGEN,[6],13.67 mg/dL
same,CARBON DIOXIDE,[6],36.33 mmol/L
same,CHLORIDE,[6],99 MEQ/L
same,CHOLESTEROL,[6],63.33 mg/dL
same,CREATINE PHOSPHOKINASE,[6],347.67 u/L
same,CREATININE,[6],0.26 mg/dL
same,GLUCOSE,[6],139.67 mg/dL
same,LACTATE DEHYDROGENASE,[6],119 u/L
same,PHOSPHORUS,[6],11.6 mg/dL
same,POTASSIUM,[6],5.86 MEQ/L
same,SODIUM,[6],145.53 MEQ/L
same,TOTAL BILIRUBIN,[6],0.17 mg/dL
same,TOTAL PROTEIN,[6],6.23 G/DL
same,URIC ACID,[6],0.47 mg/dL
same,ABSOLUTE BASOPHIL,[7],0 CELLS/uL
same,ABSOLUTE EOSINOPHIL,[7],0 CELLS/uL
same,ABSOLUTE LYMPHOCYTE,[7],14144.67 CELLS/uL
same,ABSOLUTE MONOCYTE,[7],257.33 CELLS/uL
same,ABSOLUTE SEGMENTED NEUTROPHIL,[7],3531.33 CELLS/uL
same,BASOPHIL,[7],0%
same,EOSINOPHIL,[7],0%
same,ERYTHROCYTE COUNT,[7],5.15 x10E6/uL
same,HEMATOCRIT,[7],30.93%
same,HEMOGLOBIN,[7],11.9 G/DL
same,LEUKOCYTE COUNT,[7],17.93 x10E3/uL
same,LYMPHOCYTE,[7],79.67%
same,MEAN CORPUSCULAR HEMOGLOBIN,[7],23.1 pg
same,MEAN CORPUSCULAR VOLUME,[7],60.03 fL
same,NEUTROPHIL,[7],19%
same,NUCLEATED RED BLOOD CELLS,[7],0 /100WBC
same,PLATELET COUNT,[7],1336.67 x10E3/uL
same,ALANINE AMINOTRANSFERASE,[8],40 u/L
same,ALKALINE PHOSPHATASE,[8],346.33 u/L
same,ASPARTATE AMINOTRANSFERASE,[8],68.67 u/L
same,BLOOD UREA NITROGEN,[8],12.67 mg/dL
same,CARBON DIOXIDE,[8],33.67 mmol/L
same,CHOLESTEROL,[8],76.33 mg/dL
same,CREATINE PHOSPHOKINASE,[8],209.67 u/L
same,CREATININE,[8],0.31 mg/dL
same,GLUCOSE,[8],139.67 mg/dL
same,LACTATE DEHYDROGENASE,[8],88.67 u/L
same,POTASSIUM,[8],5.7 MEQ/L
same,TOTAL BILIRUBIN,[8],0.17 mg/dL
same,TOTAL PROTEIN,[8],5.97 G/DL
same,URIC ACID,[8],0.4 mg/dL
